Assay results reported in patent US20120178124A1, “STEROL SIDE CHAIN-CLEAVING ENZYME PROTEIN AND USE THEREOF” (MITSUBISHI CHEMICAL CORPORATION, priority 2009, published 2012).
Like-named read-outs stand apart in the source and are kept apart here.

Assays:
CYP204A1 [1] = test: Conversion of 4-cholesten-3-one to progesterone by Bacillus megaterium cell mass expressing the CYP204A1 gene; conditions: Bacillus megaterium pXYL204CB cell suspension, 30° C., 24 hours
[2] = molecular target: T1, Novosphingobium aromaticivorans ATCC 700278 P450scc CYP204A1, wild type, SEQ ID NO: 23 (Novosphingobium aromaticivorans, UniProt A4XF07); test: Kinetics analysis of CYP204A1 with 4-cholesten-3-one (conversion to progesterone, cell-free extract)
T1 sequence (A4XF07 1-473): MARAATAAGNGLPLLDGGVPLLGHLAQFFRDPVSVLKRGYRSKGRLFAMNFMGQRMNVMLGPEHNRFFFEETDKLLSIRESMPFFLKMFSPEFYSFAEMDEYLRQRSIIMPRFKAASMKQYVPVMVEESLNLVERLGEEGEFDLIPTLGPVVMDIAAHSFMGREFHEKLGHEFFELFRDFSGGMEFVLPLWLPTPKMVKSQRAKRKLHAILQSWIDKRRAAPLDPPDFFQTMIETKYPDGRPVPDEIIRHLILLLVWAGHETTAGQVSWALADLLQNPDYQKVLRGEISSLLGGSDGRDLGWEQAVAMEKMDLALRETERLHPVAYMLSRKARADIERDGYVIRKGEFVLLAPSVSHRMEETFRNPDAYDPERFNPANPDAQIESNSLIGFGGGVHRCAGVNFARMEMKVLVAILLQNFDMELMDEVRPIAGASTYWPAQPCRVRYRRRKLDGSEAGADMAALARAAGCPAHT

CYP204A1 [3] = conditions: strain BP172, same reaction as Example 6 (28° C., 5 hours)
Protocol: Novosphingobium aromaticivorans (ATCC 700278) was inoculated into an L medium, and it was then cultured at 30° C. for 2 days. Thereafter, genomic DNA was extracted from the cell mass obtained in the same manner as that of Example 1. A fragment comprising a CYPSS204A1 gene and a ferredoxin gene located downstream thereof was amplified from the above-described genomic DNA by using a primer CYP-5F (SEQ ID NO: 9) and a primer CYP-6R (SEQ ID NO: 10) and also using La Taq polymerase (manufactured by Takara Bio INC.). The temperature conditions applied during this operation were 94° C./3 min, 30 cycles of (98° C./20 sec, 63° C./30 sec, and 68° C./2 min), and 72° C./5 min.
Escherichia coli BL21(DE3) was transformed with this plasmid, and the obtained cell strain was named as BP172.
The Escherichia coli expression strain BP215 was inoculated into 2 ml of an M9 mix medium (Na2HPO4: 0.68%, KH2PO4: 0.3%, NaCl: 0.05%, NH4C;: 0.01%, Casamino acid: 1%, D-Glucose: 0.4%, CaCl2: 0.1 mM, MgCl2: 1 mM, Thiamine: 0.002%, FeSO4: 0.1 mM, Carbenicillin: 0.005%), and it was then subjected to shaking culture at 30° C. for 17 hours, so as to obtain pre-culture solution. 0.25 ml of this pre-culture solution was inoculated into 25 ml of the main culture medium (Na2HPO4: 0.68%, KH2PO4: 0.3%, NaCl: 0.05%, NH4Cl: 0.01%, Casamino acid: 1%, CaCl2: 0.1 mM, MgCl2: 1 mM, Thiamine: 0.002%, FeSO4: 0.1 mM, Carbenicillin: 0.005%, Overnight Express™ solution: 7%, 5-Aminolevlic acid: 0.008%) using Overnight Express™ Autoinduction System (Novagen Cat. No. 71300-4), and it was then subjected to shaking culture at 25° C. for 24 hours. 5 ml of the obtained main culture solution was centrifuged (3500 rpm, 10 minutes) to obtain cell mass, and 1 ml of CV2 buffer (50 mM (pH) potassium phosphate buffer containing glycerol: 2%, carbenicillin: 0.005%, and isopropyl β-D-1-thiogalactopyranoside: 0.1 mM) was added to the obtained cell mass. Thereafter, 0.01 ml of the methanol solution of 1% 4-cholesten-3-one and 0.02 ml of an aqueous solution of 25% methyl-β-cyclodextrin were added to the mixed solution, and the obtained mixture was then shaken at 28° C. for 5 hours for the reaction. After completion of the reaction, 4 ml of methanol was added to the reaction solution, and they were then fully mixed. The obtained mixture was centrifuged, and the upper layer was then analyzed by HPLC.
As substrates, 4-cholesten-3-one, cholesterol, 7-dehydrocholesterol, ergosterol, 13-sitosterol, stigmasterol, campesterol, desmosterol, (20S)-20-hydroxycholest-4-en-3-one, (22R)-22-hydroxycholest-4-en-3-one, (20R,22R)-20,22-dihydroxycholest-4-en-3-one, and (20R,22S)-20,22-dihydroxycholest-4-en-3-one were used. Each substrate was subjected to the same reaction as that of Example 6, separately, and the generated product was then analyzed by HPLC.

[4] = substrate: CC(C)CCC[C@@H](C)[C@H]1CC[C@H]2[C@@H]3CCC4=CC(=O)CC[C@]4(C)[C@H]3CC[C@]12C; test: purified protein, by the assay type; conditions: other: 4-cholesten-3-one 0.1 to 500 μM, pH 7.5, 15° C., 60 minutes, Lineweaver-Burk plot

Molecule: CC(C)CCC[C@@H](C)[C@H]1CC[C@H]2[C@@H]3CCC4=CC(=O)CC[C@]4(C)[C@H]3CC[C@]12C [4-cholesten-3-one]
- conversion rate of 4-cholesten-3-one to progesterone (CYP204A1 [1]): 24.5%
- Vmax ([2]; 4-cholesten-3-one 0.1 to 500 μM, pH 7.5, 15° C., 60 minutes, Lineweaver-Burk plot): 47.4 mmol/min/mol
- Vmax, relative activity ([2]; relative to CYP204A1 (1.00)): 1.00
- decrease rate of the enzyme protein activity (substrate inhibition) ([2]; substrate concentration increased from 10 μM to 100 μM, pH 7.5, 15° C.): 33%
- Conversion rate (CYP204A1 [3]): 84.0%
- Conversion rate (CYP204A1 [3]; listed as 4Chol): 84%

B1: Sphingomonas subterranea NBRC16086 P450scc CYPSS204A (CYPSS), wild type, SEQ ID NO: 2 (Novosphingobium subterraneum) (protein)
chain: MASAAAGADGLPLLDGGVPLLGHLAQFFRDPVSVLKRGYRSKGRLFAMNFMGQRMNVMLGPEHNRFFFEETDKLLSIRESMPFFLKMFSPEFYSFAEMDEYLRQRAIIMPRFKAASMKQYVPVMVEESLNLVERLGEEGEFDLIPTLGPVVMDIAAHSFMGREFHEKLGHEFFELFRDFSGGMEFVLPLWLPTPKMVKSQRAKKKLHAILQSWIDKRRASPLDPPDFFQTMIETKYPDGRAVPDEIIRHLILLLVWAGHETTAGQVSWALADLLQNPGYQQVLREEVASLLGGSDGRALGWEQAVAMEKMDLALRETERLHPVAYMLSRKASADIERDGYRIRKGEFVLLAPSVSHRMEETFRNADAYDPERFNPQNPDAQIESNSLIGFGGGVHRCAGVNFARMEMKVLVAILLQNFDMELIDEVRPIAGASTYWPAQPCRVRYKRRKLDGAGGSADVAALAKAAGCPAHA
- Km [4]: 1.1 µM
